# Key:
# [1] = system: SSADH null mice; test: Eight-hour NS2 treatment (metabolite) study in wild type and SSADH null mice; type: in vivo
# Source text: Mice were 22-23 days old on the day of treatment, and groups (n=3) were balanced for age and gender. […] Future studies in this model will encompass a dose-finding paradigm to ensure adequate target exposure; dose earlier in life; and increase group sizes.
# The design of the study was as follows: • Treatment groups were balanced for date of birth, gender, and weight. • SSADH null mice were generated by crossing mice heterozygous for SSADH deficiency. Expected number of null progeny is 1 in 4. Seven SSADH null mice were generated from this breeding, of which three were assigned to group 3 and four were assigned to group 4.
# • On the day of dosing, NS2 and vehicle were brought to room temperature. […] This working solution was prepared at room temperature, using aseptic technique in the animal dosing suite, and was used within one hour of preparation. • Dosing volume was ˜0.4 μL/g body weight for both mutant and wild-type subjects (note: the average body weight for the SSADH null mice is ˜4.9±0.9 g, and that of age-matched wild-type littermate is 10.2±0.9 g). DMSO total dose is weight normalized. • Leftover working solutions were discarded.
# Organs were snap frozen in liquid nitrogen for biochemical analysis and stored at −80° C. • A terminal cardiac blood sample was obtained in a standard microtainer for serum collection. Serum was prepared by centrifugation for 10 minutes at […] (2500×g) and stored at −80° C. until analyses. […]
# Plasma and tissue homogenates were shipped to the laboratory of Professor Gajja Salomons (VU Medical Center, Amsterdam, the Netherlands) on May 11, 2015. SSA, GHB and D2HG levels were assayed in the Salomons laboratory using the following published methods: 1) “Stable isotope dilution analysis of 4-hydroxybutyric acid: an accurate method for quantification in physiological fluids and the prenatal diagnosis of 4-hydroxybutyric aciduria,” Gibson et al., 1990, Biomed Environ Mass Spectrom. […]
# [2] = Consumption of 4HNE over time (HPLC, 254 nm)
# Source text: 5 of 6 samples show consumption of 4HNE. One sample (2-(3-aminoquinolin-2-yl)propan-2-ol) overlaps 4HNE HPLC peak using current method. Best fit lines over this period give poorer fit to data than product formation data. Rate of 4HNE consumption can be used as an approximation of binding kinetics. […] The data were used to rank relatively each of the samples examined, including NS-2 but excluding 2-(3-aminoquinolin-2-yl)propan-2-ol.
# [3] = system: cardiac fibroblasts; test: Fibroblast activation to myofibroblast phenotype, immunostaining for α-SMA and vimentin; type: cell-based, neonatal rats
# Protocol: Thirty hearts from neonatal rats were minced and digested (Neonatal Cardiomyocyte Isolation System, LK003303, Worthington). After tissue digestion and cell dissociation, cell suspensions were plated into 35 mm dishes or onto coverslips in wells of 24-well plates. Serum-free DMEM was added to the cell suspensions and the cells allowed to adhere for 2 hrs. After two hours, the cell suspension was removed and the adherent cells were fed with DMEM containing 10% fetal bovine serum (FBS). Cells were maintained in DMEM+10% FBS for 24 hours before treatments. Treatment duration was 24 hours.
# Cell samples were divided in to 2 groups, stimulated with H2O2 or not stimulated with H2O2. […] The cells that were treated with H2O2 contained a final concentration of 0.001% in the wells. Drug was dissolved in 9.5% Captisol®, to a stock concentration of 5 mg/ml. […] Cells were treated for 24 hours then either fixed for immunostaining or collected as lysates for Western Blot analysis.
# After 24 hours of treatment, cells on cover slips were rinsed twice with PBS, fixed in 1% paraformaldehyde for 10 minutes then rinsed in PBS for immunostaining. Cells were permeabilized for 18 minutes in 0.1% Triton-X 100 in PBS, then rinsed three times in PBS for 15 minutes each. Following the rinses, cover slips were incubated in Image-IT FX Signal Enhancer (Invitrogen) to reduce background intensities in images. Subsequently, cells were washed three times 15 min with PBS, followed by one hour of blocking in 10% Normal Goat Serum Cells and 0.05% Triton-X 100, and then incubated overnight in 4° C. with primary antibodies diluted in PBS with 2% Normal Goat Serum and 0.05% Triton-X 100. Antibodies were applied at the following concentrations: Alpha-Smooth Muscle Actin 1:200 (V5228, Sigma-Aldrich), Vimentin 1:200 (V6630, Sigma-Aldrich) and NFκB 1:200 (C-20, Santa Cruz Biotech). Following overnight incubation, cover slips were brought to room temperature over 10 minutes and then rinsed in PBS for 15 min. Following 1 hour of incubation in the dark with secondary antibodies (1:100 in PBS, A-21127 and A-21136, Life Technologies), cover slips were rinsed 3 times for 15 min in PBS, incubated in the dark with DAPI (Invitrogen, 1:600) for 10 minutes, and then rinsed for 3 times in PBS. Cover slips were then mounted upside down on glass slides and examined using a Leica SP8 confocal microscope equipped with a 10× air lens. Images were taken as described and split into channels. Each channel was reviewed by eye to determine if NFκB was in the nucleus or in the cytosol.
# [4] = SSADH null mice, 8 hours after single 10 mg/kg i.p.
compound,measurement,setting,value
"CC(C)(O)c1nc2ccc(Cl)cc2cc1N [NS2, 2-(3-amino-6-chloroquinolin-2-yl)propan-2-ol]",GHB and D-2-HG in liver,[1]; [4],tendency for decrease
same,"change in levels of metabolites (GHB, SSA, D-2-HG)",[1]; [4],no statistically significant changes
same,tolerability,"[1]; mouse, in vivo, ip, 10 mg/kg",well-tolerated
same,Gradient of 4HNE consumption,[2]; 23 h,"(Gradient −0.04,"
same,Gradient of 4HNE consumption,"[2]; first 7 h, analysis at 254 nm","(Gradient −0.15,"
same,"Consumption of 4HNE, ranking, 7 Hours",[2]; rank from most effective (1) to least,1
same,"Consumption of 4HNE, ranking, 23 Hours","[2]; rank from most effective (1) to least, ranks 1-4 essentially identical",3
same,cell morphology,"[3]; 1 mM, cells stimulated with H2O2 or not",morphology of a non-activated fibroblast
same,α-SMA production and morphology change (immunostaining),"[3]; H2O2 stimulated cells, 10 μM, 24 hours",little effect
same,α-SMA production (immunostaining),"[3]; H2O2 stimulated cells, 100 μM, 24 hours",clear inhibition
same,cell shape of activated myofibroblasts,"[3]; unstimulated cells, 10 μM",does not change
same,α-SMA production (immunostaining),"[3]; unstimulated cells, 10 μM, 24 hours",little effect
same,cell morphology,"[3]; unstimulated cells, 100 μM",morphology more like that of a non-activated fibroblast
same,α-SMA production (immunostaining),"[3]; unstimulated cells, 100 μM, 24 hours",inhibited the production of α-SMA
same,α-SMA production (immunostaining),"[3]; unstimulated cells, 1 mM, 24 hours",appeared to limit the production of α-SMA
